Assay results as given in US11535643B2, “Macrolides with modified desosamine sugars and uses thereof” (President and Fellows of Harvard College, priority 2015, dated 2022).
Values after ≈ are worked out from the molar mass of the structure shown.

Assays:
Type in all cases: cell-based
[1] = system: S. aureus; assay: Broth dilution MIC determination (CLSI) against S. aureus strains; details: for MIC S. aureus ATCC29213: ATCC29213, Strain No. MP-12; for MIC S. aureus ATCCBAA-977: ATCCBAA-977, Strain No. MP-17; for MIC S. aureus (MRSA) GISA USA600: GISA USA600, Strain No. MP-619 UNT-120; for MIC S. aureus (MRSA) ST-228 cErm: Strain No. MP-513; for MIC S. aureus (MRSA) USA100: USA100, Strain No. MP-618 UNT-096; for MIC S. aureus (MRSA) USA300: USA300, Strain No. MP-549; for MIC S. aureus (MRSA) ermA phenotype: Strain No. MP-620 UNT-146
Excerpt: (§1) Minimum inhibitory concentrations (MICs) for macrolides described herein have been determined for unique strains of S. aureus, S. pneumoniae, S. pyogenes, E. faecalis, E. coli, A. baumannii, K. pneumoniae, P. aeruginosa, and H. influenzae, including several multidrug-resistant strains, with a special focus on macrolide resistant mechanisms. Azithromycin and solithromycin were included as control compounds. CLSI standard procedures for broth dilution MIC determination were used. Data for exemplary compounds described herein is shown in Tables M1-M7 and in Tables N1-N4.

[2] = system: S. pneumoniae; assay: Broth dilution MIC determination (CLSI) against S. pneumoniae strains; details: for MIC S. pneumoniae ATCC49619: ATCC49619, Strain No. MP-21
Excerpt: as §1

[3] = system: S. pyogenes; assay: Broth dilution MIC determination (CLSI) against S. pyogenes strains; details: for MIC S. pyogenes ATCC19615: ATCC19615, Strain No. MP-19; for MIC S. pyogenes mac resistant: Strain No. MP-625 UNT-014
Excerpt: as §1

[4] = system: E. faecalis; assay: Broth dilution MIC determination (CLSI) against E. faecalis strains; details: for MIC E. faecalis ATCC29212: ATCC29212, Strain No. MP-24; for MIC E. faecalis van resistant: Strain No. UNT-039
Excerpt: as §1

[5] = system: E. coli; assay: Broth dilution MIC determination (CLSI) against E. coli strains; details: for MIC E. coli ATCC25922: ATCC25922, Strain No. MP-4; for MIC E. coli ATCC25922:tolC: Strain No. MP-9; for MIC E. coli clinical: Strain No. MP541; for MIC E. coli clinical-cErm: Strain No. MP532
Excerpt: as §1

[6] = system: A. baumannii; assay: Broth dilution MIC determination (CLSI) against A. baumannii strains; details: for MIC A. baumannii ATCC19606: ATCC19606, Strain No. MP-15
Excerpt: as §1

[7] = system: K. pneumoniae; assay: Broth dilution MIC determination (CLSI) against K. pneumoniae strains; details: for MIC K. pneumoniae ATCC10031: ATCC10031, Strain No. MP-14
Excerpt: as §1, with “used.” for “used. Data for exemplary compounds described herein is shown in Tables M1-M7 and in Tables N1-N4.”

[8] = system: P. aeruginosa; assay: Broth dilution MIC determination (CLSI) against P. aeruginosa strains; details: for MIC P. aeruginosa ATCC27853: ATCC27853, Strain No. MP-3; for MIC P. aeruginosa PAO1: PAO1, Strain No. MP-7; for MIC P. aeruginosa PAO1:mex: Strain No. MP-8
Excerpt: as §1

For `CCC1OC(=O)C(C)C(=O)C(C)C(OC2OC(C)CC(n3cccc3)C2O)C(C)(OC)CC(C)CNC(C)C2N(CCCCn3cc(-c4cccc(N)c4)nn3)C(=O)OC12C` (stereo not drawn) [FSM-120362], the “MIC S. aureus ATCC29213” value [1] was over 64 µg/mL, the “MIC S. aureus ATCCBAA-977” value [1] was over 64 µg/mL and the “MIC S. aureus (MRSA) GISA USA600” value [1] was over 32 µg/mL. For the same molecule, the “MIC S. aureus (MRSA) ST-228 cErm” value [1] was over 64 µg/mL, the “MIC S. aureus (MRSA) USA100” value [1] was over 64 µg/mL and the “MIC S. aureus (MRSA) USA300” value [1] was over 64 µg/mL. For the same molecule, the “MIC S. aureus (MRSA) ermA phenotype” value [1] was over 32 µg/mL, the “MIC S. pneumoniae ATCC49619” value [2] was 8 µg/mL (≈ 9.41 µM) and the “MIC S. pneumoniae mefA” value ([2]; Strain No. MP-626 UNT-038) was 4 µg/mL (≈ 4.71 µM). The “MIC S. pneumoniae mefA” value ([2]; Strain No. MP-627 UNT-039) was 8 µg/mL (≈ 9.41 µM), the “MIC S. pyogenes ATCC19615” value [3] was 2 µg/mL (≈ 2.35 µM) and the “MIC S. pyogenes mac resistant” value [3] was 16 µg/mL (≈ 18.8 µM). The “MIC E. faecalis ATCC29212” value [4] was 64 µg/mL (≈ 75.3 µM), the “MIC E. faecalis van resistant” value [4] was over 32 µg/mL and the “MIC E. coli ATCC25922” value [5] was over 32 µg/mL. For the same molecule, the “MIC E. coli ATCC25922:tolC” value [5] was over 64 µg/mL, the “MIC E. coli clinical” value [5] was over 32 µg/mL and the “MIC E. coli clinical-cErm” value [5] was over 32 µg/mL. The “MIC A. baumannii ATCC19606” value [6] was over 64 µg/mL, the “MIC A. baumannii clinical” value ([6]; Strain No. MP576) was over 32 µg/mL and the “MIC A. baumannii clinical” value ([6]; Strain No. MP577) was over 32 µg/mL. The “MIC K. pneumoniae ATCC10031” value [7] was over 64 µg/mL, the “MIC K. pneumoniae clinical” value ([7]; Strain No. MP546) was over 32 µg/mL and the “MIC K. pneumoniae clinical” value ([7]; Strain No. MP548) was over 32 µg/mL. The “MIC P. aeruginosa ATCC27853” value [8] was over 32 µg/mL, the “MIC P. aeruginosa PAO1” value [8] was over 32 µg/mL and the “MIC P. aeruginosa PAO1:mex” value [8] was over 64 µg/mL.

`CCC1OC(=O)C(C)C(=O)C(C)C(OC2OC(C)CC(N3CCOCC3)C2O)C(C)(OC)CC(C)CNC(C)C2N(CCCCn3cc(-c4cccc(N)c4)nn3)C(=O)OC12C` (stereo not drawn) [FSM-120367] was tested, and the “MIC S. aureus ATCC29213” value [1] was over 64 µg/mL, the “MIC S. aureus ATCCBAA-977” value [1] was over 64 µg/mL and the “MIC S. aureus (MRSA) GISA USA600” value [1] was over 64 µg/mL. The “MIC S. aureus (MRSA) ST-228 cErm” value [1] was over 64 µg/mL, the “MIC S. aureus (MRSA) USA100” value [1] was over 64 µg/mL and the “MIC S. aureus (MRSA) USA300” value [1] was over 64 µg/mL. The “MIC S. aureus (MRSA) ermA phenotype” value [1] was over 64 µg/mL, the “MIC S. pneumoniae ATCC49619” value [2] was 32 µg/mL (≈ 36.8 µM) and the “MIC S. pneumoniae mefA” value ([2]; Strain No. MP-626 UNT-038) was 16 µg/mL (≈ 18.4 µM). The “MIC S. pneumoniae mefA” value ([2]; Strain No. MP-627 UNT-039) was 16 µg/mL (≈ 18.4 µM), the “MIC S. pyogenes ATCC19615” value [3] was 8 µg/mL (≈ 9.19 µM) and the “MIC S. pyogenes mac resistant” value [3] was 64 µg/mL (≈ 73.6 µM). For the same molecule, the “MIC E. faecalis ATCC29212” value [4] was 64 µg/mL (≈ 73.6 µM), the “MIC E. faecalis van resistant” value [4] was over 64 µg/mL and the “MIC E. coli ATCC25922” value [5] was over 64 µg/mL. The “MIC E. coli ATCC25922:tolC” value [5] was over 64 µg/mL, the “MIC E. coli clinical” value [5] was over 64 µg/mL and the “MIC E. coli clinical-cErm” value [5] was over 64 µg/mL. For the same molecule, the “MIC A. baumannii ATCC19606” value [6] was over 64 µg/mL, the “MIC A. baumannii clinical” value ([6]; Strain No. MP576) was over 64 µg/mL and the “MIC A. baumannii clinical” value ([6]; Strain No. MP577) was over 64 µg/mL. For the same molecule, the “MIC K. pneumoniae ATCC10031” value [7] was over 64 µg/mL, the “MIC K. pneumoniae clinical” value ([7]; Strain No. MP546) was over 64 µg/mL and the “MIC K. pneumoniae clinical” value ([7]; Strain No. MP548) was over 64 µg/mL. For the same molecule, the “MIC P. aeruginosa ATCC27853” value [8] was over 64 µg/mL, the “MIC P. aeruginosa PAO1” value [8] was over 64 µg/mL and the “MIC P. aeruginosa PAO1:mex” value [8] was over 64 µg/mL.

For `CCC1OC(=O)C(C)C(=O)C(C)C(OC2OC(C)CC(NCC(=O)O)C2O)C(C)(OC)CC(C)CNC(C)C2N(CCCCn3cc(-c4cccc(N)c4)nn3)C(=O)OC12C` (stereo not drawn) [FSM-120368], the “MIC S. aureus ATCC29213” value [1] was over 64 µg/mL, the “MIC S. aureus ATCCBAA-977” value [1] was over 64 µg/mL and the “MIC S. aureus (MRSA) GISA USA600” value [1] was over 64 µg/mL. For the same molecule, the “MIC S. aureus (MRSA) ST-228 cErm” value [1] was over 64 µg/mL, the “MIC S. aureus (MRSA) USA100” value [1] was over 64 µg/mL and the “MIC S. aureus (MRSA) USA300” value [1] was over 64 µg/mL. For the same molecule, the “MIC S. aureus (MRSA) ermA phenotype” value [1] was over 64 µg/mL, the “MIC S. pneumoniae ATCC49619” value [2] was 16 µg/mL (≈ 18.6 µM) and the “MIC S. pneumoniae mefA” value ([2]; Strain No. MP-626 UNT-038) was 16 µg/mL (≈ 18.6 µM). For the same molecule, the “MIC S. pneumoniae mefA” value ([2]; Strain No. MP-627 UNT-039) was 8 µg/mL (≈ 9.32 µM), the “MIC S. pyogenes ATCC19615” value [3] was 8 µg/mL (≈ 9.32 µM) and the “MIC S. pyogenes mac resistant” value [3] was 32 µg/mL (≈ 37.3 µM). For the same molecule, the “MIC E. faecalis ATCC29212” value [4] was over 64 µg/mL, the “MIC E. faecalis van resistant” value [4] was over 64 µg/mL and the “MIC E. coli ATCC25922” value [5] was over 64 µg/mL. For the same molecule, the “MIC E. coli ATCC25922:tolC” value [5] was over 64 µg/mL, the “MIC E. coli clinical” value [5] was over 64 µg/mL and the “MIC E. coli clinical-cErm” value [5] was over 64 µg/mL. For the same molecule, the “MIC A. baumannii ATCC19606” value [6] was over 64 µg/mL, the “MIC A. baumannii clinical” value ([6]; Strain No. MP576) was over 64 µg/mL and the “MIC A. baumannii clinical” value ([6]; Strain No. MP577) was over 64 µg/mL. For the same molecule, the “MIC K. pneumoniae ATCC10031” value [7] was over 64 µg/mL, the “MIC K. pneumoniae clinical” value ([7]; Strain No. MP546) was over 64 µg/mL and the “MIC K. pneumoniae clinical” value ([7]; Strain No. MP548) was over 64 µg/mL. The “MIC P. aeruginosa ATCC27853” value [8] was over 64 µg/mL, the “MIC P. aeruginosa PAO1” value [8] was over 64 µg/mL and the “MIC P. aeruginosa PAO1:mex” value [8] was over 64 µg/mL.
